One may read the pIC50 as the negative decadic logarithm of the IC50, by convention in mol/L. What is called inhibition is how much of the control response was suppressed.

pIC50: −log10 of the molar value.

The nature of data set [1]: in vitro. As to conditions: human.
Data set [2] can be described thus: in vitro. The following applies: African green monkey.
For data set [3], the system named is SFTSV. As to the kind of experiment: microbe, parasite or virus in culture. Type of data set: cell-based. As to conditions: Severe fever with thrombocytopenia syndrome virus, Vero.
The subject of data set [4] is SFTSV. Description: microbe, parasite or virus in culture. It is filed as cell-based, Severe fever with thrombocytopenia syndrome virus. The following applies: for pIC50: Severe fever with thrombocytopenia syndrome virus, HUVEC.
Data set [5] concerns SFTSV. Type of data set: cell-based, Severe fever with thrombocytopenia syndrome virus.
In the next data set the test system is SFTSV mini-genome. Type of data set: cell-based, Severe fever with thrombocytopenia syndrome virus.
Data set [6] concerns SFTSV. The arrangement: species or system C57BL/6 mice. The following applies: mouse, in vivo, ip, 4 mg/kg/day.
Data set [7] has as its system SFTSV. Type of data set: cell-based, Severe fever with thrombocytopenia syndrome virus. The source holds these as a separate data set.
The test system of data set [8] is Rift Valley fever virus (RVFV). As to the kind of experiment: microbe, parasite or virus in culture. Type of data set: cell-based. The following applies: HUVEC.
In data set [9] the test system is SFTSV. It is filed as cell-based, Severe fever with thrombocytopenia syndrome virus. The source holds these as a separate data set.
Data set [10] has as its system SFTSV. It is filed as cell-based, Severe fever with thrombocytopenia syndrome virus. This is another data set of the same source.
The test system of data set [11] is SFTSV. Type of data set: cell-based, Severe fever with thrombocytopenia syndrome virus. The source holds these as a separate data set.
Data set [12] concerns SFTSV. Type of data set: cell-based, Severe fever with thrombocytopenia syndrome virus. This is another data set of the same source.
Data set [13] has as its system Rift Valley fever virus (RVFV). Type of data set: cell-based.
Data set [14] has as its system SFTSV. The following applies: mouse, in vivo, ip, 1 mg/kg/day.
The next data set has as its system HUVEC cells. As to conditions: human.
Data set [15] concerns SARS-CoV-2. Type of data set: cell-based.
The test system of data set [16] is SARS-CoV-2. Description: microbe, parasite or virus in culture. Type of data set: cell-based. As to conditions: Severe acute respiratory syndrome coronavirus 2, Vero C1008.

Regarding `O=C1OC[C@H]2OC(O)[C@H](O)[C@@H](O)[C@@H]2OC(=O)c2cc(O)c(O)c(O)c2-c2c(O)c(O)c3oc(=O)c4c(c(O)c(O)c5oc(=O)c2c3c54)-c2c1cc(O)c(O)c2O` (mixture of isomers) [Punicalin, punicalin], the CC50 was more than 250 µM in “in vitro [1]” and more than 125 µM in the data set “in vitro [2]”. For the same compound, the negative logarithm of the IC50 (pIC50) in the data set with SFTSV [3] is 5.42; in the data set with SFTSV [4], 5.60. Also, the SI in the data set on SFTSV [4] is reported as more than 100. Moreover, the “virucidal effect on SFTSV virions” value in the data set on SFTSV [5] is given as “directly inactivated virions in a dose dependent manner”.
Turning to `CC(C)=CCCC(C)(O)C1CCC2(C)C1C(O)CC1C3(C)CCC(OC4OC(CO)C(O)C(O)C4OC4OC(CO)C(O)C(O)C4OC4OCC(O)C(O)C4O)C(C)(C)C3CCC12C` (stereo not shown) [Notoginsenoside Ft1, notoginsenoside Ft1], the CC50 in the data set “in vitro [1]” is approximately 62.5 µM; in “in vitro [2]”, more than 250 µM. The pIC50 in the data set with SFTSV [3] is 5.46; with SFTSV [4], 4.96.
As to `CC(=O)O[C@@H]1C[C@H](O)[C@@]23CO[C@@H](O)[C@]1(C)[C@@H]2C[C@@H](O)[C@]1(C)[C@@H]3C(=O)[C@H](OC(C)=O)[C@@]2(C)[C@H](c3ccoc3)C[C@H]3O[C@]321` [Toosendanin, toosendanin], the CC50 in “in vitro [1]” was more than 250 µM. Besides, the “viral RNA replication and transcription (mini-genome)” value in the data set on SFTSV mini-genome is “did not affect the viral RNA replication and transcription”. In the data set with SFTSV [6], the “antigen of SFTSV nucleoprotein in spleen sections” value is “reduced the antigen of SFTSV nucleoprotein in the spleen sections” and the “viral load in the serum” value is reported as “significantly lower than that of the mice in the vehicle control group”. In the data set on SFTSV [3], this compound had a pIC50 of 5.92. In the data set with SFTSV [7], the Number of particles is given as 20 and the “amount of internalized viral particles (microscopy)” value is recorded as “significantly reduced the amount of internalized viral particles”. In data set [8], this compound had a pIC50 of 6.89, an inhibition at 0.6 µM of 72.6%, an inhibition at 1.8 µM of 82% and an inhibition at 5.6 µM of 95.5%. In data set [8], this compound had an inhibition at 16.7 µM of 93.6% and an inhibition at 50 µM of 95.1%. Besides, in the data set on SFTSV [9], the “accumulation of vRNA (internalization), concentration series” value is recorded as “dose dependent inhibition effect on accumulation of vRNA” and the “relative intracellular vRNA (internalization)” value was “significantly reduced”. In addition, the “syncytium formation (viral fusion)” value in the data set with SFTSV [10] is “No significant difference of syncytium formation”. In addition, the “vRNA and viral protein expression, time of addition” value with SFTSV [11] is on record as “decreased significantly when toosendanin was added prior to but not post SFTSV infection”. Also, the “SFTSV binding (vRNA level of bound virions)” value with SFTSV [12] is given as “did not inhibit SFTSV binding”. The compound further showed a pIC50 in the data set on SFTSV [4] of 7.28. In data set [13], the “time-of-addition result, RVFV” value is listed as “inhibited the entry step of RVFV”. Besides, in the data set with SFTSV [14], the “megakaryocytes accumulation in spleens (H&E)” value is recorded as “reduced the megakaryocytes accumulation”, the “viral antigen in spleen sections (immunohistochemistry)” value is on record as “less viral protein positive cells was detected” and the weight loss result is listed as “did not lead to weight loss”. The same compound registered a CC50 with HUVEC cells of more than 450 µM. Moreover, the “time-of-addition result, SARS-CoV-2” value in the data set on SARS-CoV-2 [15] was “revealed inhibitory effect when added 1 h post infection”. For the same compound, the “virucidal effect on SFTSV virions” value in the data set with SFTSV [5] was “no virucidal effect”. In the data set with SARS-CoV-2 [16], this compound showed a negative-log IC50 (pIC50) of 6.62, an inhibition at 0.21 µM of 42%, an inhibition at 0.62 µM of 84.6% and an inhibition at 1.85 µM of 92.4%. Also, in the data set with SARS-CoV-2 [16], the inhibition at 5.6 µM was 99%, the inhibition at 16.7 µM was 99.5% and the inhibition at 50 µM came to 99.9%.

The record behind these values is paper PMC8632254 (Frontiers in Pharmacology, 2021).
